Results reported in US6696064B2 (priority 2000, dated 2004).

What was measured:
[1] = tested on: normal rat brain; details: in vivo
[2] = tested on: healthy volunteers; details: 300 mg single dose i.v. infusion, eleven healthy volunteers; cited from earlier work
[3] = cited from earlier work

Compound: CCN(CC)CCCC(C)Nc1ccnc2cc(Cl)ccc12 (stereo not drawn) [chloroquine]
- effect of chloroquine on histological brain damage in rats that received DT [1]: did not reduce the histological rain damage
- effect of systemic chloroquine on brain damage caused by Tf-CRM107 [1]: completely blocked the brain damage
- effects on the electrocardiogram, mean arterial blood pressure, or pulse rate [2]: no effects were seen
- side effects during i.v. infusion [2]: only of subjective side effects
- time to maximum blood levels ([3]; after oral administration): 3 to 5 h
- amounts deposited in brain, times smaller than in other body tissues ([3]; in vivo): 7 to 70 times
